Structures are written as SMILES.

Usually logP stands for a log measure of how a compound divides between an organic and an aqueous phase.

Regarding `COc1cc(Cc2cnc(N)nc2N)c(Br)c(OC)c1OC`, the logP was 1.66. The value for `COc1ccccc1Cc1cnc(N)nc1N` was 1.75. The compound `CCOc1cc(Cc2cnc(N)nc2N)c(Br)cc1OC` gave a logP of 1.86. Take `COc1cc(Cc2cnc(N)nc2N)ccc1Cl`: the logP was determined as 1.87.

Take `CCCOc1cc(Br)c(Cc2cnc(N)nc2N)cc1OC`: the logP amounted to 2.84.

In the case of `COc1ccc(Cc2cnc(N)nc2N)cc1I`, the logP was found to be 2.09. As for `COc1cc(Br)c(Cc2cnc(N)nc2N)cc1OC`, the figure is 1.64. For the compound `CCCOc1cc(Cc2cnc(N)nc2N)c(Br)cc1OC`, the logP came to 2.31. As for `CCOc1ccc(Cc2cnc(N)nc2N)cc1OCC`, the figure is 1.72; as for `CCCOc1cc(Cc2cnc(N)nc2N)ccc1OC`, 1.88.

In the case of `CCOc1cc(Cc2cnc(N)nc2N)ccc1OC`, the logP came to 1.2. The value for `COc1ccc(Br)c(Cc2cnc(N)nc2N)c1` was 2.

Turning to `CCOc1ccc(Cc2cnc(N)nc2N)cc1OC`, the logP came to 1.34. The value for `CN(C)c1ccc(Cc2cnc(N)nc2N)cc1` was 1.82. Consider `CCOc1cc(Cc2cnc(N)nc2N)c(Br)c(OCC)c1OCC`, for which the logP was 1.81. As for `COc1cc(Cc2cnc(N)nc2N)ccc1Oc1ccccc1`, the figure is 2.49; as for `COc1ccc(Cc2cnc(N)nc2N)cc1C(C)C`, 2.79. As for `CCOc1cc(Cc2cnc(N)nc2N)cc(OCC)c1OCC`, the figure is 2.08; as for `CCN(CC)c1cc(Cc2cnc(N)nc2N)ccc1OC`, 2.43; as for `COc1ccc(Br)cc1Cc1cnc(N)nc1N`, 2.44. For `COc1ccc(Cc2cnc(N)nc2N)cc1Br`, the logP came to 1.88.

`COc1cc(Cc2cnc(N)nc2N)c(Br)cc1Br` gave a logP of 3.17. In turn, `COc1cc(Cc2cnc(N)nc2N)ccc1C(C)C` had a logP of 3.14. The compound `COc1cc(Cc2cnc(N)nc2N)ccc1OC1CCCC1` gave a logP of 2.65.

On to `COc1ccc(Cc2cnc(N)nc2N)cc1Nc1ccccc1`, for which the logP was found to be 2.88. As for `Nc1ncc(Cc2ccccc2)c(N)n1`, the figure is 1.54.

`COc1c(Br)c(Cc2cnc(N)nc2N)c(Br)c(OC)c1OC` registered a logP of 1.73. As for `COc1cc(Cc2cnc(N)nc2N)ccc1N`, the figure is 0.49. Take `COc1ccc(Cc2cnc(N)nc2N)cc1F`: the logP is 1.08. As for `COc1cc(Cc2cnc(N)nc2N)ccc1Nc1ccccc1`, the figure is 3.42. The value for `CCCOc1ccc(Cc2cnc(N)nc2N)cc1OC` was 2.02; that for `CCOc1cc(Br)c(Cc2cnc(N)nc2N)cc1OC` was 2.18; that for `COc1ccc(Cc2cnc(N)nc2N)cc1` was 1.34. The value for `CCOc1cc(Cc2cnc(N)nc2N)c(I)c(OCC)c1OCC` was 2.9; that for `COc1ccc(I)cc1Cc1cnc(N)nc1N` was 2.7. With `COc1ccc(Cc2cnc(N)nc2N)cc1N(C)C`, the logP was found to be 1.68.

`COc1ccc(Cc2cnc(N)nc2N)cc1N` displayed a logP of 0.76. On to `COc1ccc(Cc2cnc(N)nc2N)cc1C`, for which the logP was determined as 1.91. `COc1cc(Cc2cnc(N)nc2N)ccc1N(C)C`: the logP came to 1.87. The value for `COc1ccc(Cc2cnc(N)nc2N)cc1Oc1ccccc1` was 2.12.

Source of the values: the SangsterLogP compilation.
